Assay results reported in patent US9809521B2, “Cannabidinoid derivatives” (priority 2011, dated 2017).
pIC50: −log10 of the molar value.

Experiments:
U251 GBM cells = assay: Intracranial U251 GBM xenograft in nu/nu mice; format: in vivo, mouse
Method: Effects of CBD on GBM cell invasion in In Vivo Studies. To determine whether CBD could inhibit GBM cell invasion through intact brain tissue, an organotypic brain slice assay was utilized. GFP-labeled U251 cells were treated for two days in culture with vehicle or CBD. On the third day, the cells were harvested and transferred to the top of a 0.5 mm coronal rat brain slice obtain from a postnatal day 3 rat pup. A porous cell culture insert containing the slice was suspended for three days in a well containing conditioned media with either vehicle or 1 μM CBD. […] GBM tumors were generated in nu/nu mice by intracranial injection of U251 GBM cells. […] CBD produced a robust reduction of GBM progression, decreasing the tumor area by 95% (FIG. 14, panels B and C). […] This occurred concomitantly with a decrease in tumor cell proliferation (the number of Ki67-positive nuclei was decreased by 87%±9 (p<0.0001, Student's t-test)) (FIG. 14, panel D).

caspase 3, 7, 9 and PARP = assay: Western analysis of caspases and PARP in U251 cells; format: cell-based, human; settings: THC 1.7 μM, CBD 0.4 μM, three days
From the text: Caspases play a primary role in the regulation of programmed cell death.

Id-1 = assay: Quantitative Western analysis of Id-1 expression in different types of cancer cells; format: cell-based
Method: Quantitative Western analysis of Id-1 expression in different types of cancer cells with or without CBD treatment. Quantitative Western analysis was performed to examine whether CBD would downregulate Id-1 protein expression in cell lines for breast, prostate, salivary gland, head and neck, and glioblastoma cell lines. […] For the salivary gland cancer cell line, ACCM, a higher concentration of CBD (2.5 μM) was required to see a significant downregulation in Id-1 expression (FIG. 13, panel C (left)).

[1] = system: SAS, HSC-2, ACCM and ACC2 cells; assay: Head and neck and salivary gland cancer cells: Id-1 expression, viability, invasiveness; format: cell-based
Method: Measuring the effect of CBD on the aggressiveness of head and neck as well as salivary gland cancer cells. Head and neck cancer cell lines (SAS and HSC-2 in the upper panels) and salivary gland cancer cell lines (ACCM and ACC2 in the lower panels) were treated with CBD.

U87 cells = assay: MTT cell proliferation assay; settings: Homo sapiens, U-87 MG, 72 h, read-out: CBD IC50, U87
Id-1 gene = assay: PCR of Id-1 mRNA expression in MDA-MB231 cells; format: cell-based, human
Method: Polymerase Chain Reaction: Total cellular RNA was isolated from breast cancer cells treated with vehicle control or with CBD. Transcripts for Id-1 and for β-actin were reverse transcribed using SuperscriptII Reverse TranscriptaseII (Gibco-BRL), and polymerase chain reaction performed. The 5′ and 3′ PCR primers were […] (SEQ ID NO:1) and […] (SEQ ID NO:2) for Id-1; and […] (SEQ ID NO:3) and […] (SEQ ID NO:4) for β-actin. PCR was performed in buffer containing 1 μM of each of the 5′ and 3′ PCR primer and 0.5 U of Taq polymerase using 25 cycles for amplification of Id-1 and β-actin cDNAs. The cycle conditions were 45 sec denaturation at 94° C., 45 sec annealing at 55° C., and 1 min extension at 72° C.
Gene Expression Assays looking at Id-1 gene epression with CBD in MDA-MB231 cells. […] To determine if this effect was due to the inhibition of transcription, a construct was used that contained the Id-1 promoter fused to a luciferase reporter in a PGL-3 basic vector. This construct was transiently transfected into MDA-MB231 cells. Twenty-four hours after transfection, MDA-MB231-Id-1-luc cells were treated with CBD for 2 or 3 days and luciferase activity was measured (FIG. 3, panel B and panel C). […] These findings correlated to the data obtained when the expression of the Id-1 protein was assessed by Western analysis.

Ki67 = assay: Immunohistochemical detection of Ki67 in lung metastatic foci; format: in vivo, mouse; settings: 1 mg/kg
Method: CBD down-regulates Id-1 expression and breast cancer cell proliferation in lung metastatic foci. […] Lung tissue from mice treated with vehicle or CBD (1 mg/kg) were evaluated for Id-1 expression and Ki67, a marker of cellular proliferation (FIG. 5, panel A).
Immunohistochemical detection of Id-1 and Ki67 was performed in lung tissues of vehicle and CBD treated mice. Nuclei were stained with hematoxylin. […] The intensity of the immunohistochemical (IHC) detection of Id-1 was then graded from 0 to 4.

SF126 cells = assay: MTT cell proliferation assay; settings: read-out: IC50, SF126; seven day treatment; 95% confidence limits in brackets
CB2 receptors = CB2 receptors (Homo sapiens, UniProt P34972); assay: Selectivity screen for CB2 receptors; format: binding
[2] = Tetrad assay (psychoactive properties of cannabinoids); settings: in vivo

CB2 receptors, sequence (P34972 whole entry): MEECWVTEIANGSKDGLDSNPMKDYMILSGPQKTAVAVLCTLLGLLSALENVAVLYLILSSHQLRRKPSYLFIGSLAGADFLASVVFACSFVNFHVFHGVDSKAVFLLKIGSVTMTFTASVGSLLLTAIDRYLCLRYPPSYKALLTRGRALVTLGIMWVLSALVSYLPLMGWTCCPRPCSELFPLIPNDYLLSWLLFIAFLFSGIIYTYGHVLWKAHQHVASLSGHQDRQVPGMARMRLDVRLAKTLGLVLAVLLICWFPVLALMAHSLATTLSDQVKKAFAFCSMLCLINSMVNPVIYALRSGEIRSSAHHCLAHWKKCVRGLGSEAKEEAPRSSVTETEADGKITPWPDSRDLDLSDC

SMILES | mice in which no tumor cells were observed (U251 GBM cells; 15 mg/kg) | decrease of tumor area (U251 GBM cells; 15 mg/kg i.p. 5 days a week for 28 days) [%] | decrease in number of Ki67-positive nuclei (U251 GBM cells; 15 mg/kg, tumors responding to treatment) | Id-1 expression in tumors (U251 GBM cells; tumors responding to treatment) | caspase 3, 7, 9 and PARP (caspase 3, 7, 9 and PARP) | Id-1 protein expression in MDA-MB231, MDA-MB436, PC3, DU145, SAS, U251 and SF126 (Id-1; 1.5 μM) | concentration required for significant downregulation in Id-1 expression, ACCM (Id-1; salivary gland cancer cell line ACCM) [µM] | ACCM tumor cell viability and invasiveness [1] | Id-1 gene expression in SAS, HSC-2, ACCM, ACC2 [1] | SAS tumor cell viability and invasiveness [1] | pIC50 (U87 cells) | Id-1 mRNA expression (Id-1 gene) | Ki67 in metastatic foci (Ki67) | pIC50 (SF126 cells) | selectivity CB2 receptors over CB1 receptors (CB2 receptors) | activity in the tetrad assay [2]
C=C(C)[C@@H]1CCC(C)=C[C@H]1c1c(O)cc(CCCCC)cc1O [CBD, cannabidiol] | one of the five mice | 95 | 87%±9 | significant down-regulation of Id-1 expression | no changes in caspase activity were observed | significant inhibition of Id-1 protein expression | 2.5 | significant effect on ACCM tumor cell viability and invasiveness | downregulated in all cell lines | significant effect on SAS tumor cell viability and invasiveness | 6.15 | significantly reduced | significant down-regulation of Ki67 | 6.14 |  | 
CCCCC(C)(C)c1cc(O)c(C2CCC(C3CCCCC3)CC2)c(O)c1 (stereo not shown) [Compound O-1663] |  |  |  |  |  |  |  |  |  |  |  |  |  |  | selective for targeting CB2 receptors over CB1 receptors | little activity in the tetrad assay
